From patent publication US11034669B2, “Pyrrole and pyrazole compounds and methods of use thereof” (Nuvation Bio Inc., priority 2018, dated 2021)

Key:
[1] = target: T1, GR (Homo sapiens, UniProt P04150); experiment: GR antagonist assay (GRE-LUC luciferase reporter, with 0.1 nM dexamethasone)
T1 sequence (P04150 1-777): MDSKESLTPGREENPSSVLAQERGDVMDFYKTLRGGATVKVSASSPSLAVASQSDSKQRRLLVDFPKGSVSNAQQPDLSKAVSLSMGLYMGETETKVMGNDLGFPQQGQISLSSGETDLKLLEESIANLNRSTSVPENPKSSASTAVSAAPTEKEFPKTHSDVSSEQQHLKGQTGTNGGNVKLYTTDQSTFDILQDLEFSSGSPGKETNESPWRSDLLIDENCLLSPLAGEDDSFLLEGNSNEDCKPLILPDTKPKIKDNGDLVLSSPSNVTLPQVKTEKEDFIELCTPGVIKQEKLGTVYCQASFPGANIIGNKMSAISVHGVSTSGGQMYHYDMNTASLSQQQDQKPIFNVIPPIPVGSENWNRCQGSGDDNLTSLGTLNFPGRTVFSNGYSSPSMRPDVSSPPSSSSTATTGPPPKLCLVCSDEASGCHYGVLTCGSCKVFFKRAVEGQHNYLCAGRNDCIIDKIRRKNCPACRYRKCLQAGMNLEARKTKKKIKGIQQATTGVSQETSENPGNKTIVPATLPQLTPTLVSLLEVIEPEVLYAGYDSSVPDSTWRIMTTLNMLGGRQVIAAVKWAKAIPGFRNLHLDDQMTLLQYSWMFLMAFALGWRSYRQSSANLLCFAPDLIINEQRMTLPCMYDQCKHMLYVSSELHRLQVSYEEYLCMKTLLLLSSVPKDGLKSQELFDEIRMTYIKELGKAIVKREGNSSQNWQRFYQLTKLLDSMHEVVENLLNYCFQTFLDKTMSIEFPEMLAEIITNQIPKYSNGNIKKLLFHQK
Experimental: COS-7 cells (ATCC, Manassas, Va.) were plated in 24 well plates in DME+5% csFBS without phenol red at 70,000 cells/well. Once the cells attached to the plates (typically after overnight incubation after plating), they were transfected in OPTIMEM medium (Life Technologies) using lipofectamine reagent (Life Technologies) with 0.25 μg GRE-LUC, 25 ng pCR3.1 GR, and 10 ng CMV-renilla LUC per well. Twenty-four hours after transfection, the cells were fed with DME+5% csFBS without phenol red (Fisher Scientific, Waltham, Mass.) and treated with the test compounds (1 μM to 10 μM dose range) in the presence of 0.1 nM dexamethasone (Sigma, St. Louis, Mo.). Sixteen to twenty-four hours after treatment, a luciferase assay was performed using the Dual Luciferase assay kit (Promega, Madison, Wis.). Firefly luciferase values were normalized to Renilla luciferase numbers.

[2] = target: T2, Human AR (Homo sapiens, UniProt P10275); experiment: AR antagonist assay (GRE-LUC luciferase reporter, with 0.1 nM R1881); format: cell-based; details: read-out: AR Antagonism IC50
T2 construct: expressed in transfected cells; host or cells: HEK-293 cells
T2 sequence (P10275 1-920): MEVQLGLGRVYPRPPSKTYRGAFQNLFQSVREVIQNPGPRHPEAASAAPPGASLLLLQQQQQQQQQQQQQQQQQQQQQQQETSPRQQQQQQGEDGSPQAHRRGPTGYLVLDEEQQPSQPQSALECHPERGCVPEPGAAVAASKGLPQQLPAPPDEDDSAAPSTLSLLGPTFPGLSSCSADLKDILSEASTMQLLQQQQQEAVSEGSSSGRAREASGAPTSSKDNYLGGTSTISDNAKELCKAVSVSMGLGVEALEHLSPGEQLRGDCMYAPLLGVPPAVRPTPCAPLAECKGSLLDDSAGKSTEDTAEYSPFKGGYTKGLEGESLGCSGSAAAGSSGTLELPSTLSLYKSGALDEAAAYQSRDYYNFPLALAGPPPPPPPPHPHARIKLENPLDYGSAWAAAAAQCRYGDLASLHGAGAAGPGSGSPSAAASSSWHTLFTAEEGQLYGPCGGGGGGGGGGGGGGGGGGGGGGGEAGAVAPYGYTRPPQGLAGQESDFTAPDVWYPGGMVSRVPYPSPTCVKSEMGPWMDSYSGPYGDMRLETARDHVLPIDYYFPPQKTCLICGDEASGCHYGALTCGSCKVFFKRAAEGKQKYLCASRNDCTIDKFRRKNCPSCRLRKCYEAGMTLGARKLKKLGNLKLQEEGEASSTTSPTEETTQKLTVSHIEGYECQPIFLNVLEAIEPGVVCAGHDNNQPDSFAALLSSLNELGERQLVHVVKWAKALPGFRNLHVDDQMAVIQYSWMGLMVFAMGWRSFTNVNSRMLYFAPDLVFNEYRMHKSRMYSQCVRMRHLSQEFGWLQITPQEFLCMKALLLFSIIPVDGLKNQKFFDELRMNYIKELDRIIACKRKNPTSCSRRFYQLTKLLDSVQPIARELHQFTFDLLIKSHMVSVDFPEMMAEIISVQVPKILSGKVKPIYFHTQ
Experimental: Human AR cDNA cloned into pCMV vector, GRE-LUC, and CMV-renilla-LUC were used to transfect cells. HEK-293 cells (ATCC) were plated at 120,000 cells per well of a 24 well plate in DME+5% csFBS (Fisher Scientific, Waltham, Mass.). The cells were transfected using Lipofectamine (Life Technologies, Carlsbad, Calif.) with 0.25 μg GRE-LUC, 0.010 μg CMV-LUC (renilla luciferase) and 25 ng of the AR. […] Luciferase assay was performed 48 hrs after transfection. Firefly luciferase assay values were normalized to renilla luciferase values and were graphed using graphpad prism software (La Jolla, Calif.).

[3] = tested on: LNCaP-abl cells; experiment: Cell proliferation assay, LNCaP-abl (CellTiter-Glo); format: cell-based; details: three days
Experimental: LNCaP-abl (3,000 cells/well, received from Dr. Myles Brown, Dana Farber Cancer Institute), 22RV 1 (1,000 cells/well), LNCaP (5,000 cells/well), or COS (3,000 cells/well) cells were plated in 96 well plates in 50 μl RPMI+10% FBS (Fisher Scientific, Waltham, Mass.). LNCaP, COS, and 22RV 1 cells were obtained from ATCC. Cells were treated in RPMI+10% FBS with test articles, ranging from 1 nM to 10 μM. Three days later, viable cells (LNCaP-abl, 22RV 1, and COS) were measured by CellTiter-Glo assay (Promega, Madison, Wis.). For LNCaP cells, medium containing test article was changed after 3 days of treatment, and after an additional 3 days of culture, viable cells were measured by CellTiter-Glo assay.

Row | Structure (SMILES) | IC50 [1] | IC50 [2] | cell proliferation, % of vehicle at 3 μM [3] | cell proliferation, % of vehicle at 10 μM [3]
1 | Cc1ncsc1C(=O)NCc1ccc(-n2ccc(-c3ccc(C#N)c(C(F)(F)F)c3)n2)cc1F [Compound 15] | > 10 µM | 0.28 µM | 66% | 3%
2 | N#Cc1ccc(-c2ccn(-c3ccc(CNC(=O)c4ccccn4)c(F)c3)n2)cc1C(F)(F)F [Compound 16] | > 10 µM | > 10 µM | 89% | 98%
